Assay: Inhibition of Geotrichum candidum Histidinol dehydrogenase

SMILES | IC50 [µM]
O=C(O)C1Cc2cncn2C(=O)N1 (stereo not drawn) | 3.56
CCOC(=O)NC(Cc1cn(C)cn1)C(=O)OC (stereo not drawn) | 29.3
COC(=O)NC(Cc1cncn1C)C(=O)OC (stereo not drawn) | 10.6
COC(=O)CCc1c[nH]cn1 | 5.2
COC(=O)C1Cc2c(Cl)ncn2C(=O)N1 (stereo not drawn) | 122
O=C(O)C1Cc2c(I)nc(I)n2C(=O)N1 (stereo not drawn) | 58.7
O=C1NCCc2cncn21 | 24.2
O=C(O)CCc1c[nH]cn1 | 3.17
